{"source": "patent US20120321694A1", "about": "“COMPOSITIONS AND USES” (priority 2010, published 2012)", "key": {"TASTPM mice [1]": {"system": "TASTPM mice", "assay": "Survival of TASTPM mice", "type": "in vivo", "details": "weekly injections, followed for 112 days; PBS 13 out 25; FIG. 31", "excerpt": "The usage of the TLR2 agonist, i.e. Pam3CysLip Aβ1-6 peptide, improves the survival rate of TASTPM mouse model. 23 out of 25 mice survived after weekly injections of Pam3CysLip Aβ1-6 peptide compared to PBS injected animals in which only 13 out 25 TASTPM mice survived (followed for 112 days)."}, "TASTPM mice [2]": {"system": "TASTPM mice", "assay": "T-water maze in TASTPM mice", "type": "in vivo", "details": "12 weekly i.m. injections; vs PBS; FIG. 30", "description": "To determine whether a TLR2 agonist will improve the cognitive impairment in TASTPM mice, the Pam3CysLip adjuvant fused to the Aβ1-6 peptide was injected 12 times at weekly basis using the intramuscular route and the memory was assessed using the T-water maze test. […] TASTPM mice have received one a week for a period of 12 weeks the following treatment: PBS or mice have received once a week for a period of 12 weeks the following treatment: PBS or of Pam3CysLip Aβ1-6 peptide."}, "Aβ42": {"system": "Aβ42", "assay": "Anti-Aβ42 immunogenicity in amyloid deposition mouse model", "type": "in vivo, TASTPM mice", "details": "12 injections, intramuscular route; FIG. 29"}, "BV2 microglia cells": {"system": "BV2 microglia cells", "assay": "In vitro phagocytosis of Aβ1-42 in BV2 cells (Western blot)", "type": "cell-based, mouse", "details": "5 μg/mL cytochalasin D, 30 min before; FIG. 16", "description": "For total Aβ detection, 10-30 μg of cell extracts were separated on a precast 10-20% SDS polyacrylamide Tris-Tricine gel (Bio-Rad, Canada). Separated proteins were then transferred onto polyvinylidene fluoride (PVDF) membranes (PerkinElmer, Canada). Membrane were incubated in DPBS (Gibco, USA) at 90° C. for 10 min. […] Films were digitalized using a HP Scanjet 4370 (HP) and signal intensity was measured using ImageJ (version 1.44p, NIH).\nBV2 microglia cells were seeded at 900000 cells/60 mm cell culture Petri dish 24 hours prior the experiment, and cultured in complete media (Dulbecco's Modified Eagle Medium (DMEM, Gibco, USA) supplemented with 10% fetal bovine serum (FBS) (Gibco, USA), 1 mM sodium pyruvate (Gibco, USA) and 100 U/mL of penicillin and 100 μg/mL of streptomycin (Gibco, USA)). […] Protein concentration in supernatant or cell extracts was then measured using the Bradford method (Coomassie Plus, The better Bradford assay reagent, Thermoscientific, USA) accordingly to the manufacturer recommendation and equal amount of protein were then analyzed by Western blot. […]"}}, "note": "Where no end group is shown, it is not given here. The star is where a group is joined. Pam3Cys = N-terminal lipid (lipidation), CCCCCCCCCCCCCCCC(=O)N[C@@H](CSCC(COC(=O)CCCCCCCCCCCCCCC)OC(=O)CCCCCCCCCCCCCCC)C(=O)*", "data": [{"compound": "Pam3Cys—SQ EPAAPAAEAT PAAEAPDAEFRH (Pam3Cys-SQEPAAPAAEATPAAEAPDAEFRH) [Pam3CysLip Aβ1-6 peptide]", "values": [{"measurement": "mice survived", "setting": "TASTPM mice [1]", "result": "23 out of 25"}, {"measurement": "T-water maze, right-left discrimination tests (working memory)", "setting": "TASTPM mice [2]", "result": "trend of improvement"}, {"measurement": "anti Aβ42 specific immunogenicity", "setting": "Aβ42", "result": "High and specific anti Aβ42 specific immunogenicity"}]}, {"compound": "C=C1[C@@H](C)[C@H]2[C@H](Cc3ccccc3)NC(=O)[C@]23[C@H](OC(C)=O)/C=C/[C@@](C)(O)C(=O)[C@@H](C)C/C=C/[C@H]3[C@@H]1O", "note": "[cytochalasin D]", "values": [{"measurement": "effect on 2E7-stimulated cellular uptake of Aβ1-42", "setting": "BV2 microglia cells", "result": "further inhibited"}]}]}
